Measured values reported in article PMC11562385 (RSC Chemical Biology, 2024).
Peptide text beside a SMILES is read from it.

Test: Variable-temperature CD melting curves (CD-melts at 228±2 nm and 202±2 nm), individual and global two-state fits
Format: physicochemical
How it was run: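 Far-UV CD melts (0 to 95 °C) at 15-120 µM peptide in 15 mM phosphate buffer, concentration set by Trp/Tyr absorbance at 280 nm; CD-exciton intensity taken as %-folding probe. Melting curves fitted individually and globally to a two-state model.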

[1] = xlsx sheet of the peptide, individual fit of CD-melt

CSCC[C@H](NC(=O)[C@H](CC(=O)O)NC(=O)[C@H](Cc1ccccc1)NC(=O)[C@H](CCCNC(=N)N)NC(=O)[C@H](Cc1ccc(O)cc1)NC(=O)[C@H](CC(=O)O)NC(=O)[C@H](CCCNC(=N)N)NC(=O)[C@H](CCCNC(=N)N)NC(=O)[C@H](C)NC(=O)[C@@H](NC(=O)[C@H](Cc1c[nH]c2ccccc12)NC(=O)[C@@H](N)CCCNC(=N)N)C(C)C)C(=O)NCC(=O)N[C@@H](Cc1ccccc1)C(=O)N[C@@H](CC(=O)O)C(=O)N[C@@H](Cc1ccc(O)cc1)C(=O)N[C@@H](Cc1c[nH]c2ccccc12)C(=O)N[C@H](C(=O)N[C@@H](Cc1c[nH]c2ccccc12)C(=O)N[C@@H](CCC(=O)O)C(=O)O)C(C)C [2c] (H-RWVARRDYRFDMGFDYWVWE-OH)
ΔGF0 (CD-melt at 228±2 nm, individual two-state Gibbs-Helmholtz fit (Origin 9.0), 0-95 °C, phosphate buffer 15 mM pH 6.5 ± MeOH): -1.26 ± 0.01 kcal/mol | Hairpin %-fold 291K (Table S5, individual fit, 291 K): 93 ± 1% | Hairpin %-fold 310K (Table S5, individual fit, 310 K): 77 ± 1% | -TΔSF0 (as E16): 12.4 ± 0.2 kcal/mol | ΔCpF0 (as E16): -29 ± 7 cal.deg-1.mol-1 | ΔHF0 (as E16): -13.6 ± 0.2 kcal/mol | VT-CD %-fold (folded fraction (χF) at 25 °C from CD-melts, (R) regular / (B) bulged fold, phosphate buffer 15 mM pH 6.5, up to 20% MeOH): 93% (B) | Tm 228 nm Glob. (global fit (shared maximum molar ellipticity), 228 nm): 48.0 oC | Tm 202 nm Glob. (global fit, 202 nm): 67.5 oC | χF (291 K) 202 nm Glob. (global fit, 202 nm, 291 K): 97% | χF (291 K) 228 nm Glob. (global fit, 228 nm, 291 K): 63% | χF (291 K) 202 nm Indiv. (individual fit, 202 nm, 291 K): 73% | χF (291 K) 228 nm Indiv. (individual fit, 228 nm, 291 K): 56% | Tm 228 nm Indiv. (individual fit, exciton band 228 nm): 36.7 oC | Tm 202 nm Indiv. (individual fit, β-bulge band 202 nm): 62.2 oC | VT-CD Tm (°C) (melting temperature from CD-melts, phosphate buffer 15 mM pH 6.5, up to 20% MeOH): 54 °C | DHm, fitted value from OriginPro [1]: -14.4955 kcal/mol | Tm, fitted value from OriginPro [1]: 327.29 K
